The record followed here is ChEMBL document CHEMBL4673358 (Bioorg Med Chem Lett, 2021).

Data set [1] addresses T1, Indoleamine 2,3-dioxygenase 1 (Homo sapiens, UniProt P14902). The experiment in a line: Inhibition of IDO1 in human whole blood. In kind it is tissue-based.
Target sequence in this assay (P14902 whole entry): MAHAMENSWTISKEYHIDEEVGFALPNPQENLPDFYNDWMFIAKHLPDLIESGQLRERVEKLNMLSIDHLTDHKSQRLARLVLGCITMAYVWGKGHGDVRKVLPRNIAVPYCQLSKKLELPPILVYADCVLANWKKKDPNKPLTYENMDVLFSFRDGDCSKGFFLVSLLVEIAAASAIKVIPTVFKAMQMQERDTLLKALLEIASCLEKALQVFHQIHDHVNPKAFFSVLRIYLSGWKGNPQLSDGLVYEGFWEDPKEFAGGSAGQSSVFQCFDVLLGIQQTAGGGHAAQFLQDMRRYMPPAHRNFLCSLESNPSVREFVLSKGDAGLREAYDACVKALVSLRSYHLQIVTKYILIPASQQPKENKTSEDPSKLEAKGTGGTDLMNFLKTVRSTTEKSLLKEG
For data set [2], the target named is T1, Indoleamine 2,3-dioxygenase 1. The experiment in a line: Inhibition of IDO1 in human SKOV3 cells. It is filed as cell-based, SK-OV-3.
Target sequence in this assay (P14902 whole entry): as above
Data set [3] has as its target Indoleamine 2,3-dioxygenase 1 (Mus musculus) (UniProt P28776). The experiment in a line: In vivo inhibition of IDO1 in mouse assessed as reduction in LPS-induced kynurenine level at 30 mg/kg, po administered as single dose measured after 36 hrs relative to control. In kind it is functional, organism-based.
Data set [4] is described as follows: Metabolic stability in human hepatocytes assessed as intrinsic clearance measured per million cells. It is filed as ADME, cell-based, Hepatocyte. The settings on record: read-out: CLH.
The nature of data set [5]: Metabolic stability in human hepatocytes assessed as half life. It is filed as ADME, cell-based, Hepatocyte.
Data set [6] in a line: Half life in mouse at 10 mg/kg, po. In kind it is ADME, organism-based. To be noted: in vivo.
Data set [7] is described as follows: AUC(0 to 24 hrs) in mouse at 10 mg/kg, po. In kind it is ADME, organism-based. More on the design: time < 24 hr, route oral, dose 10 mg/kg. To be noted: in vivo.
Data set [8] is described as follows: Cmax in mouse at 10 mg/kg, po. More on the design: route oral, dose 10 mg/kg. The settings on record: in vivo. It is filed as ADME, organism-based.
The nature of data set [9]: Metabolic stability in mouse liver microsomes assessed as intrinsic clearance. In kind it is ADME, Microsome. The settings on record: read-out: CLH. (In general: Liver microsomes are vesicles of endoplasmic reticulum, rich in cytochrome P450 enzymes.)
A short description of data set [10]: Metabolic stability in human liver microsomes assessed as intrinsic clearance. In kind it is ADME, Microsome. The settings on record: read-out: CLH.
Data set [11] concerns the target Tryptophan 2,3-dioxygenase (Homo sapiens, UniProt P48775). The experiment in a line: Inhibition of TDO in HEK cells. In kind it is cell-based.
Data set [12] addresses Indoleamine 2,3-dioxygenase 1 (Mus musculus) (UniProt P28776). In words: In vivo inhibition of IDO1 in mouse assessed as reduction in kynurenine level. It is filed as functional.
Data set [13] is described as follows: Metabolic stability in rat hepatocytes assessed as intrinsic clearance measured per million cells. In kind it is ADME, cell-based, Hepatocyte. The settings on record: read-out: CLH.
Data set [14] is described as follows: Metabolic stability in rat hepatocytes assessed as half life. In kind it is ADME, cell-based, Hepatocyte.
The nature of data set [15]: Metabolic stability in mouse hepatocytes assessed as intrinsic clearance measured per million cells. In kind it is ADME, cell-based, Hepatocyte. The settings on record: read-out: CLH.
Data set [16] can be described thus: Metabolic stability in mouse hepatocytes assessed as half life. In kind it is ADME, cell-based, Hepatocyte.
Data set [17] can be described thus: Half life in rat at 10 mg/kg, po. It is filed as ADME, organism-based. The settings on record: in vivo.
The nature of data set [18]: AUC(0 to 72 hrs) in rat at 10 mg/kg, po. More on the design: time < 72 hr, route oral, dose 10 mg/kg. It is filed as ADME, organism-based. To be noted: in vivo.
The nature of data set [19]: Cmax in rat at 10 mg/kg, po. In kind it is ADME, organism-based. More on the design: route oral, dose 10 mg/kg. To be noted: in vivo.
Data set [20] is described as follows: AUC(0 to 72 hrs) in mouse at 10 mg/kg, po. It is filed as ADME, organism-based. More on the design: time < 72 hr, route oral, dose 10 mg/kg. The settings on record: in vivo.
The target of data set [21] is T2, hERG (KCNH2) (Homo sapiens, UniProt Q12809). The experiment in a line: Inhibition of human ERG assessed as reduction in channel tail current at 10 uM by patch clamp assay relative to control. (In general: In patch-clamp work, channel activity is measured electrically.)
Data set [22] addresses T2, hERG (KCNH2). The experiment in a line: Inhibition of human ERG at 10 uM relative to control.
For the next data set, the target named is Cytochrome P450 3A4 (Homo sapiens, UniProt P08684). In words: Inhibition of CYP3A4 (unknown origin). It is filed as ADME.
The nature of data set [23]: Plasma protein binding in mouse. It is filed as ADME, cell-free. The settings on record: read-out: PPB (converted).
Data set [24] can be described thus: Plasma protein binding in human. It is filed as ADME, cell-free. The settings on record: read-out: PPB.
The target in data set [25] is T1, Indoleamine 2,3-dioxygenase 1. The experiment in a line: Binding affinity to IDO1 (unknown origin) assessed as change in melting temperature at 5 uM by thermal shift assay.
Target sequence in this assay (P14902 whole entry, looked up): as the sequence (P14902 whole entry) above
Data set [26] addresses Indoleamine 2,3-dioxygenase 1 (Mus musculus, UniProt P28776). The experiment in a line: Inhibition of mouse IDO1 expressed in HEK cells. In kind it is cell-based.
The target in the next data set is Cytochrome P450 2C9 (Homo sapiens, UniProt P11712). In words: Inhibition of CYP2C9 (unknown origin). In kind it is ADME.

Activity calls are given as the source filed them. No cut-off for these calls is given here.

Chain of Tryptophan 2,3-dioxygenase (P48775 whole entry): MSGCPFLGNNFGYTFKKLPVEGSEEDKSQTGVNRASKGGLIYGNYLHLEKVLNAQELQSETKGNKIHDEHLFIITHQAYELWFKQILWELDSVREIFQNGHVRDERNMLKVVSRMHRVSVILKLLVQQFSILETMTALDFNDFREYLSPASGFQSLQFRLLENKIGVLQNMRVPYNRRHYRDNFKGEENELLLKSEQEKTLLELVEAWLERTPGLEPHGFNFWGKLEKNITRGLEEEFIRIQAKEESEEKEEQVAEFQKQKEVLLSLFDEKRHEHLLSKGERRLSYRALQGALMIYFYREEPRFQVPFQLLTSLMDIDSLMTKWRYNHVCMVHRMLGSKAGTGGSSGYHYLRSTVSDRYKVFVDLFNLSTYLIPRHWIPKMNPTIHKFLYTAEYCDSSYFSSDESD
Chain of Indoleamine 2,3-dioxygenase 1 (Mus musculus) (P28776 whole entry, looked up): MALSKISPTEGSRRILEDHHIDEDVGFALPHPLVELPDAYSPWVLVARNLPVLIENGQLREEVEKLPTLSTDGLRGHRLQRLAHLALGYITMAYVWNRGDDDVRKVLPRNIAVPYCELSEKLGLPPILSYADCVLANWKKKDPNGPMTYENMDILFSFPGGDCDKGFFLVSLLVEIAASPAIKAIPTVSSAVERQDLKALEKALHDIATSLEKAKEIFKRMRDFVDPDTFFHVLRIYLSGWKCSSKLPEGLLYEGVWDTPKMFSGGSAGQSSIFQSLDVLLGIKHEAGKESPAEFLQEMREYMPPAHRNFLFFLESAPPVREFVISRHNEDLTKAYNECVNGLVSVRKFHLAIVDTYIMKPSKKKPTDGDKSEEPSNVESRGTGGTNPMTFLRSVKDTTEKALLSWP
T2 sequence (Q12809 whole entry): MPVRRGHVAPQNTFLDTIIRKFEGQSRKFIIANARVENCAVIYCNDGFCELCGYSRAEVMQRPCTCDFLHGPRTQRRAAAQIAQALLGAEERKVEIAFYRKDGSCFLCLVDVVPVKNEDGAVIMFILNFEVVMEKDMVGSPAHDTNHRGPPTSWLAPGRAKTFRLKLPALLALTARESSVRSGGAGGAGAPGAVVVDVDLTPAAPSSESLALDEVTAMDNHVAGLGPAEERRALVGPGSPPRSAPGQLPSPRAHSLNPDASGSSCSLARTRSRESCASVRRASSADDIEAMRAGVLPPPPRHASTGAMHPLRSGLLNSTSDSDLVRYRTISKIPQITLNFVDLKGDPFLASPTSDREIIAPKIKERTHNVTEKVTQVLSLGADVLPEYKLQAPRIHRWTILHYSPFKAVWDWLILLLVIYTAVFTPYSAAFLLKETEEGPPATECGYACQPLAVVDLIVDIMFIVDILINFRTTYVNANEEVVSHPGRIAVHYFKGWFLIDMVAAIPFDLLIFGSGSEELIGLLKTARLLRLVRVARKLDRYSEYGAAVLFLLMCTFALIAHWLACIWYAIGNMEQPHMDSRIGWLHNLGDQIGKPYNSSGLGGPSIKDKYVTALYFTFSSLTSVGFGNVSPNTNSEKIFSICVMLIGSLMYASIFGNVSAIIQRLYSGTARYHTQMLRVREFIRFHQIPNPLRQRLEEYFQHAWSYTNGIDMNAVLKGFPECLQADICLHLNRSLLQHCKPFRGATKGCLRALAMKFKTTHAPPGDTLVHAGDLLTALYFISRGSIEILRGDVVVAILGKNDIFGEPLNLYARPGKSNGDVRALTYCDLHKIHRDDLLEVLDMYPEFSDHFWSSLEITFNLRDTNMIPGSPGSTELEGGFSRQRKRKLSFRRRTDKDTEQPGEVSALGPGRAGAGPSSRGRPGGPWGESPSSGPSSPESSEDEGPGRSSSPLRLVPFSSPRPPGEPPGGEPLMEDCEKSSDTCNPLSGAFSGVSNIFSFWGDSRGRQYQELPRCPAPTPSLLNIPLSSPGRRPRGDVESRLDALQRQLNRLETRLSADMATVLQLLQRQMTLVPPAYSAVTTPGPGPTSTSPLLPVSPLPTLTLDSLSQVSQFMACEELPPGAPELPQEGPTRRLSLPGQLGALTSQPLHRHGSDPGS
Chain of Indoleamine 2,3-dioxygenase 1 (Mus musculus, UniProt P28776) (P28776 whole entry): as the sequence (P28776 whole entry, looked up) above
Chain of Cytochrome P450 3A4 (P08684 whole entry): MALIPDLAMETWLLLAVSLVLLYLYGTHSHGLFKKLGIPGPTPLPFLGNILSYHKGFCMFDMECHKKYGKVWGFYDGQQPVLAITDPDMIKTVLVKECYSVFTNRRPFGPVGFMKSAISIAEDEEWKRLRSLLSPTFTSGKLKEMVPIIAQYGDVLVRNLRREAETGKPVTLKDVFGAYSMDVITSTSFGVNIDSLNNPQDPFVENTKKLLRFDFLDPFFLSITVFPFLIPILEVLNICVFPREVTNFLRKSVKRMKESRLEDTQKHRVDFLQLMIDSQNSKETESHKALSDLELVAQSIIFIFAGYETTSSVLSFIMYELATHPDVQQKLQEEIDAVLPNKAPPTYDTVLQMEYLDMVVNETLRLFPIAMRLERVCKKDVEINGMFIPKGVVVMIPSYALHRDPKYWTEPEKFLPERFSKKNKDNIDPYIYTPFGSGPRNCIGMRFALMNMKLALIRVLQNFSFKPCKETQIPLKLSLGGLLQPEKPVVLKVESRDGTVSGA
Chain of Cytochrome P450 2C9 (P11712 whole entry): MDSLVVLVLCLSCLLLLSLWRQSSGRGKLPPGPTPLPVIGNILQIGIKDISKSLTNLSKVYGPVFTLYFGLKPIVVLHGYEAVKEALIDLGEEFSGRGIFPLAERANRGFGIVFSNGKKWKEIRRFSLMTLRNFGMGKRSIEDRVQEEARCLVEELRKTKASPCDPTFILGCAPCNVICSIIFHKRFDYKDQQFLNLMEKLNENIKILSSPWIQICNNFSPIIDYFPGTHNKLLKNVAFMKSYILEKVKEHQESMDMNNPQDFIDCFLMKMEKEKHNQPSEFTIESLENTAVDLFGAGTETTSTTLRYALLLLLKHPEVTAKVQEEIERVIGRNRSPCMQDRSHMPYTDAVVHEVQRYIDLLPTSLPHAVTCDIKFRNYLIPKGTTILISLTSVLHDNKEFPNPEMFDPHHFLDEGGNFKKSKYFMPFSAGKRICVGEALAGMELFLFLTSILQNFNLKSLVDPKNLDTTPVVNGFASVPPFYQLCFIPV

As usually defined, the IC50 is the concentration needed to halve the response being measured. Low readings indicate greater potency, high ones weaker potency. As to `O=C(Nc1ccc(Cl)cc1)C(=O)N1CCC(c2ccnc3ccc(F)cc23)CC1`, the IC50 was 1600 nM in [1] and 15 nM in data set [2].
The inhibition is the drop in the measured response relative to a control, in per cent. By half-life is commonly meant the time in which the quantity being followed falls by half. The AUC(0-t) is exposure summed from dosing to a finite time, without extrapolation to infinity. One may read the Cmax as the maximum level reached in the sampled fluid or tissue. In the case of `C[C@@H](C(=O)Nc1ccc(Cl)cc1)[C@H]1CC[C@@H](c2ccnc3ccc(F)cc32)CC1`, the inhibition result in [3] was “Active”. Further, the hepatocyte CLint in data set [4] was determined as 4.5 µL/min/1e6 cells. Moreover, the half-life in data set [5] is 2.55 h; in data set [6], 2.5 h. For the same molecule, the AUC(0-t) at 24 h in data set [7] amounted to 9.3 µM·h. For the same molecule, the concentration in data set [8] peaked (Cmax) at 2000 nM.
In the case of `CCC(C(=O)Nc1ccc(Cl)cc1)N1CCC2(CCOc3cc(C(F)(F)F)ccc32)CC1` (stereo not drawn), the values for the microsomal CLint in [9] and in [10] were 39 µL/min/mg and 22 µL/min/mg, respectively. Further, the values for the concentration for half-maximal inhibition (IC50) in data set [1], in [11] and in [2] were 360 nM, 11800 nM and 12 nM, respectively.
As for `CC[C@H](C(=O)Nc1ccc(Cl)cc1)N1CCC2(CC1)COc1cc(C(F)(F)F)ccc12` (stereo in doubt), the microsomal CLint is 48 µL/min/mg in data set [9] and 17 µL/min/mg in data set [10]. Moreover, the concentration for half-maximal inhibition (IC50) in data set [11] is 15500 nM; in data set [2], 109 nM.
With `CC(C(=O)Nc1ccc(Cl)cc1)N1CCC2(CC1)COc1cc(C(F)(F)F)ccc12` (racemic), the figures for the microsomal CLint in [9] and in [10] were 56 µL/min/mg and 11 µL/min/mg, respectively. Also, the half-inhibitory concentration (IC50) stood at 1320 nM in [1], 35600 nM in data set [11] and 22 nM in data set [2].
What is called ΔTm is the shift of the melting midpoint relative to a reference. In the case of `C[C@H](C(=O)Nc1ccc(Cl)cc1)[C@H]1CC[C@]2(CC1)COc1cc(C(F)(F)F)ccc12`, the inhibition result in data set [3] is “Active”. Besides, the inhibition entry in [12] is “inactive”. Also, the hepatocyte CLint worked out at 4 µL/min/1e6 cells in data set [4], 5.6 µL/min/1e6 cells in [13] and 1.7 µL/min/1e6 cells in data set [15]. In addition, the half-life is 2.92 h in data set [5]; 2.08 h in [14]; 6.65 h in [16]; 49 h in data set [17]; 115 h in data set [6]. Also, the AUC(0-t) at 72 h in [18] is 18.2 µM·h; in [20] it was 105 µM·h. The Cmax in data set [19] was 580 nM; in data set [8], 2880 nM. In addition, the inhibition at 10 µM was 44% at hERG (KCNH2) [21] and 67% against hERG (KCNH2) [22]. Further, the IC50 turned out to be 3100 nM against Cytochrome P450 3A4; 7.8 nM in data set [26]; 52 nM in data set [1]; 7300 nM in data set [11]; 3.9 nM in data set [2]. In addition, the fraction unbound in data set [23] is 0.005; in data set [24], 0.001. For the same molecule, the shift in melting temperature (ΔTm) in [25] was 17.8 °C. In addition, the microsomal CLint in data set [9] and in data set [10] was < 1 µL/min/mg throughout.
For the molecule `O=C(CN1CCC2(CCc3ccccc32)CC1)Nc1ccc(Cl)cc1`, the concentration for half-maximal inhibition (IC50) in data set [11] was found to be 42800 nM; in data set [2], 670 nM.
With `C[C@H](C(=O)Nc1ccc(Cl)cc1)[C@H]1CC[C@]2(CC1)COc1nc(C(F)(F)F)ccc12`, the figures for the microsomal CLint in data set [9] and in data set [10] were 3.5 µL/min/mg and 1.6 µL/min/mg, respectively. For the same molecule, the IC50 came out at 7100 nM in [11] and 5.4 nM in [2].
As to `O=C(Nc1ccc(Cl)cc1)C(CCO)N1CCC2(CC1)COc1cc(C(F)(F)F)ccc12` (stereo not drawn), the 50% inhibitory concentration (IC50) in data set [11] was found to be 9500 nM; in [2], 86 nM.
Consider `C[C@H](C(=O)Nc1ccc(Cl)cc1)[C@H]1CC[C@]2(CC1)COc1ncc(C(F)(F)F)cc12`, for which the microsomal CLint in data set [9] came out at 19 µL/min/mg; in data set [10] it was 3 µL/min/mg. Moreover, the values for the IC50 in [11] and in data set [2] were 18400 nM and 7.9 nM, respectively.
The like results for `C[C@@H](C(=O)Nc1ccc(Cl)cc1)[C@H]1CC[C@]2(CC1)COc1cc(C(F)(F)F)ccc12` were, in that order, 4.5 µL/min/mg, 3.7 µL/min/mg, 10500 nM and 69 nM.
As for `O=C(Nc1ccc(Cl)cc1)C(=O)N1CCC2(CC1)COc1cc(C(F)(F)F)ccc12`, the IC50 in [1] came to 1700 nM; in data set [2] it was 32 nM.
In the case of `O=C(Nc1ccc(Cl)cc1)C(CC1CC1)N1CCC2(CC1)COc1cc(C(F)(F)F)ccc12` (stereo not drawn), the microsomal CLint in [9] came out at 14 µL/min/mg; in [10] it was 13 µL/min/mg. Moreover, the IC50 in data set [1] came to 300 nM; in data set [11], 15900 nM; in data set [2] it was 4.4 nM.
Take `CC(C(=O)Nc1ccc(Cl)cc1)C1CCC2(CC1)c1ccc(C(F)(F)F)cc1CN2C` (stereo not drawn): the results for the microsomal CLint in data set [9] and in data set [10] were 9.5 µL/min/mg and 1.4 µL/min/mg, respectively. Also, the IC50 was 7100 nM in [11] and 8.3 nM in data set [2].
In turn, `CC[C@@H](C(=O)Nc1ccc(Cl)cc1)N1CCC2(CC1)COc1cc(C(F)(F)F)ccc12` (stereo in doubt) displayed an inhibition at 10 µM against hERG (KCNH2) [22] of 85%. The IC50 against Cytochrome P450 2C9 worked out at 5000 nM; in data set [26], 38 nM; in [1] it was 360 nM; in [11], 11400 nM; in [2], 12 nM. In addition, the ΔTm in data set [25] stood at 15.2 °C. Further, the figures for the microsomal CLint in data set [9] and in [10] were 53 µL/min/mg and 22 µL/min/mg, respectively.
For `CC(C(=O)Nc1ccc(Cl)cc1)N1CCC2(CCc3ccccc32)CC1` (racemic), the microsomal CLint was 668 µL/min/mg in [9] and 326 µL/min/mg in data set [10]. The IC50 in [11] is 39000 nM; in data set [2], 39 nM.
The like results for `C[C@@H](C(=O)Nc1ccc(Cl)cc1)[C@H]1CC[C@@]2(CC1)COc1cc(C(F)(F)F)ccc12` were, in that order, 92 µL/min/mg, 43 µL/min/mg, 10300 nM and 6.6 nM.
Regarding `CC[C@H](C(=O)Nc1ccc(Cl)cn1)[C@H]1CC[C@]2(CC1)COc1cc(C(F)(F)F)ccc12`, the microsomal CLint in [9] worked out at 30 µL/min/mg; in data set [10], 5.9 µL/min/mg. The IC50 was 320 nM in data set [1], 26400 nM in data set [11] and 7 nM in data set [2].
With `CC(C)(C(=O)Nc1ccc(Cl)cc1)N1CCC2(CC1)COc1cc(C(F)(F)F)ccc12`, the microsomal CLint in data set [9] was found to be 117 µL/min/mg; in data set [10], 34 µL/min/mg. Also, the half-inhibitory concentration (IC50) in [11] was 47900 nM; in [2], 11 nM.
With `O=C(CN1CCC2(CC1)COc1cc(C(F)(F)F)ccc12)Nc1ccc(Cl)cc1`, the IC50 in data set [11] came out at 25700 nM; in data set [2], 260 nM.
As for `C[C@H](C(=O)Nc1ccc(Cl)cc1)[C@H]1CC[C@@]2(CC1)COc1cc(C(F)(F)F)ccc12`, the microsomal CLint in data set [9] turned out to be 193 µL/min/mg; in data set [10], 67 µL/min/mg. In addition, the half-maximal inhibitory concentration (IC50) came out at 51 nM in data set [1], 7800 nM in data set [11] and 5.1 nM in data set [2].
